Experimental data: patent US20230123334A1, “AMINO LIPID COMPOUND, PREPARATION METHOD THEREFOR, AND APPLICATION THEREOF” (SHENZHEN SHENXIN BIOTECHNOLOGY CO., LTD., priority 2020, published 2023)

System: HEK293 cells
Assay: Preliminary screening as DNA vectors, GFP transfection of HEK293 cells
Type: cell-based
Details: amino lipid/DOPE liposome with 75 ng plasmid DNA (psin-EGFP-IRES-Puro); number of GFP-expressing cells divided by total nuclei (Hoechst)
Summary of the method: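 First, amino lipid and DOPE were vortexed in sodium acetate buffer (pH 5.6) to form liposomes. Next, these were held with 75 ng EGFP plasmid at room temperature for 30 min. Finally, HEK293 cells were added, cultured at 37° C., Hoechst-stained, and GFP+/total nuclei scored by imaging.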

Row | Structure (SMILES) | Absolute DNA transfection efficiency in HEK293 cells
1 | CCCCCCCCCCCCCCCSc1nc(NCCCCCCCCCCCCC)nc(NCCN2CCCC2)n1 [S15N13 D3] | 4.2%
2 | CCCCCCCCCCCCCCCSc1nc(NCCN2CCOCC2)nc(SCCCCCCC)n1 [S7S15 D2] | 24.0%
3 | CCCCCCCCCCCCCNc1nc(NCCN2CCCCC2)nc(SCCCCCCCCCCCC)n1 [S12N13 D4] | 0.5%
4 | CCCCCCCCCCCCCNc1nc(NCCCN2CCN(C)CC2)nc(SCCCCCCCCCC)n1 [S10N13 D9] | 0.4%
5 | CCCCCCCCCCCCSc1nc(NCCCCCC)nc(NCCN2CCCC2)n1 [S12N6 D3] | 0.0%
6 | CCCCCCCCSc1nc(NCCCCCCC)nc(NCC2CCN(C)CC2)n1 [S8N7 D10] | 1.2%
7 | CCCCCCCCCCCCCCCCCCSc1nc(NCC2CCN(C)CC2)nc(SCCCCCCC)n1 [S7S18 D10] | 48.9%
8 | CCCCCCCCCSc1nc(NCCCCCCC)nc(NCCCN2CCOCC2)n1 [S9N7 D8] | 6.1%
9 | CCCCCCCCCCCCSc1nc(NCCCCCCC)nc(NCCN(C)C)n1 [S12N7 D1] | 6.9%
10 | CCCCCCCCCCCCCCCCCCSc1nc(NCCCCCCCC)nc(NCCCN2CCOCC2)n1 [S18N8 D8] | 2.0%
11 | CCCCCCCCCNc1nc(NCCCN2CCOCC2)nc(SCCCCCCCCC)n1 [S9N9 D8] | 14.8%
12 | CCCCCCCCCCCSc1nc(NCCCCCC)nc(NCCN2CCCC2)n1 [S11N6 D3] | 8.3%
13 | CCCCCCSc1nc(NCC2CCN(C)CC2)nc(SCCCCCC)n1 [S6S6 D10] | 21.6%
14 | CCCCCCCCCCCCSc1nc(NCCCCCCCCCCC)nc(NCCN2CCCCC2)n1 [S12N11 D4] | 1.0%
15 | CCCCCCCCCCSc1nc(NCCCN(C)C)nc(SCCCCCCCC)n1 [S8S10 D6] | 9.3%
16 | CCCCCCCCCCCCCCCCCCSc1nc(NCCCCCCCCCCCCC)nc(NCCCN2CCN(C)CC2)n1 [S18N13 D9] | 1.8%
17 | CCCCCCCCCCCCCCCCCCSc1nc(NCCCCCCC)nc(NCCN(C)C)n1 [S18N7 D1] | 6.8%
18 | CCCCCCCCCCCCCCCSc1nc(NCCCCCCC)nc(NCCN2CCOCC2)n1 [S15N7 D2] | 23.0%
19 | CCCCCCCCCNc1nc(NCCN2CCCC2)nc(SCCCCCC)n1 [S6N9 D3] | 0.4%
20 | CCCCCCCCCCCCCCCCSc1nc(NCCN2CCN(C)CC2)nc(SCCCCCC)n1 [S6S16 D5] | 15.2%
21 | CCCCCCCNc1nc(NCC2CCN(C)CC2)nc(SCCCCCC)n1 [S6N7 D10] | 2.9%
22 | CCCCCCCCCCCCCCCSc1nc(NCCN(C)C)nc(SCCCCCC)n1 [S6S15 D1] | 5.5%
23 | CCCCCCCCCNc1nc(NCCCN2CCN(C)CC2)nc(SCCCCCCC)n1 [S7N9 D9] | 22.8%
24 | CCCCCCCCCCCCCCCSc1nc(NCCCN2CCOCC2)nc(SCCCCCC)n1 [S6S15 D8] | 11.5%
25 | CCCCCCCCCCCCCCCCCCSc1nc(NCCN(C)C)nc(SCCCCCCC)n1 [S7S18 D1] | 3.7%

Row | Structure (SMILES) | Absolute DNA transfection efficiency in HEK293 cells
26 | CCCCCCCCCCCNc1nc(NCCN2CCCC2)nc(SCCCCCC)n1 [S6N11 D3] | 2.8%
27 | CCCCCCCCCCCCSc1nc(NCCCN2CCOCC2)nc(SCCCCCC)n1 [S6S12 D8] | 7.5%
28 | CCCCCCCCCCSc1nc(NCCCCCCCC)nc(NCCCN2CCN(C)CC2)n1 [S10N8 D9] | 5.6%
29 | CCCCCCCCCCCCCCCCCCSc1nc(NCCCCCCCC)nc(NCCCN(C)C)n1 [S18N8 D6] | 23.0%
30 | CCCCCCCCCCCCCCCCCCNc1nc(NCCN2CCN(C)CC2)nc(SCCCCCCCCCCCCCCCC)n1 [S16N18 D5] | 0.0%
31 | CCCCCCCCCSc1nc(NCCN(C)C)nc(SCCCCCC)n1 [S6S9 D1] | 2.6%
32 | CCCCCCCCCCCCCNc1nc(NCCN2CCCC2)nc(SCCCCCC)n1 [S6N13 D3] | 9.9%
33 | CCCCCCCCCCCCCCCNc1nc(NCCN2CCCCC2)nc(SCCCCCC)n1 [S6N15 D4] | 1.7%
34 | CCCCCCCCCCCCCCCNc1nc(NCCCN2CCOCC2)nc(SCCCCCCCCCC)n1 [S10N15 D8] | 5.1%
35 | CCCCCCCCCCCCCCCCCCNc1nc(NCCN2CCCC2)nc(SCCCCCCCCCCC)n1 [S11N18 D3] | 32.1%
36 | CCCCCCCCCCCCNc1nc(NCCN2CCCC2)nc(SCCCCCCCC)n1 [S8N12 D3] | 17.8%
37 | CCCCCCCCCCSc1nc(NCCCCCC)nc(NCCCN(C)C)n1 [S10N6 D6] | 3.5%
38 | CCCCCCCCCCCCCCCCNc1nc(NCCN(C)C)nc(SCCCCCCCCCCC)n1 [S11N16 D1] | 8.2%
39 | CCCCCCCNc1nc(NCCCN2CCOCC2)nc(SCCCCCCC)n1 [S7N7 D8] | 5.3%
40 | CCCCCCCCCCCCCCCCSc1nc(NCC2CCN(C)CC2)nc(N(CCCCCCCCCCCC)CCCCCCCCCCCC)n1 [S16^2N12 D10] | 0.3%
41 | CCCCCCCCCCCCN(CCCCCCCCCCCC)c1nc(NCCN2CCCC2)nc(SCCCCCC)n1 [S6^2N12 D3] | 0.1%
42 | CCCCCCCCCCCSc1nc(NCCCCCCCCC)nc(NCCN2CCCC2)n1 [S11N9 D3] | 23.1%
43 | CCCCCCCCCCCCCNc1nc(NCCN(C)C)nc(SCCCCCCCCC)n1 [S9N13 D1] | 25.0%
44 | CCCCCCCCCCCCCCSc1nc(NCCN2CCCC2)nc(N(CCCCCCCCCCCC)CCCCCCCCCCCC)n1 [S14^2N12 D3] | 0.2%
45 | CCCCCCCCCCCCCCCCCCSc1nc(NCCCCCCCCCCCCCCC)nc(NCCN2CCN(C)CC2)n1 [S18N15 D5] | 0.0%
46 | CCCCCCCCCCCCCCCCCCSc1nc(NCCCCCCCCCCCCC)nc(NCCN2CCCCC2)n1 [S18N13 D4] | 0.0%
47 | CCCCCCCCCCCCCCCCSc1nc(NCCCCCCCCCCCC)nc(NCCN(C)C)n1 [S16N12 D1] | 4.2%
48 | CCCCCCCCCCCNc1nc(NCCCN(C)C)nc(SCCCCCCCCCCC)n1 [S11N11 D6] | 22.8%
49 | CCCCCCCCCCCCCCCCCCSc1nc(NCCN2CCN(C)CC2)nc(SCCCCCC)n1 [S6S18 D5] | 15.1%
50 | CCCCCCCCCSc1nc(NCCCCCCCC)nc(NCCCN2CCN(C)CC2)n1 [S9N8 D9] | 25.7%

Row | Structure (SMILES) | Absolute DNA transfection efficiency in HEK293 cells
51 | CCCCCCCCCCCCSc1nc(NCCCN2CCN(C)CC2)nc(N(CCCCCCCCCCCC)CCCCCCCCCCCC)n1 [S12^2N12 D9] | 0.1%
52 | CCCCCCCSc1nc(NCCN(CC)CC)nc(SCCCCCC)n1 [S6S7 D7] | 22.2%
53 | CCCCCCCCCCCCNc1nc(NCCCN2CCN(C)CC2)nc(SCCCCCC)n1 [S6N12 D9] | 38.8%
54 | CCCCCCCCCCCCCCCNc1nc(NCCN(CC)CC)nc(SCCCCCCCC)n1 [S8N15 D7] | 2.2%
55 | CCCCCCCSc1nc(NCCCN(C)C)nc(SCCCCCCC)n1 [S7S7 D6] | 10.3%
56 | CCCCCCCCCCCCCCCCNc1nc(NCCCN2CCN(C)CC2)nc(SCCCCCCCCC)n1 [S9N16 D9] | 20.3%
57 | CCCCCCCCCNc1nc(NCC2CCN(C)CC2)nc(SCCCCCCCC)n1 [S8N9 D10] | 36.3%
58 | CCCCCCCCCCCCCCCNc1nc(NCCN2CCN(C)CC2)nc(SCCCCCCCCCCC)n1 [S11N15 D5] | 9.9%
59 | CCCCCCCCCCCCCCCCSc1nc(NCCCCCCCC)nc(NCCN2CCCC2)n1 [S16N8 D3] | 13.2%
60 | CCCCCCCCCCCCCCCCSc1nc(NCCCCCCCCCCCCC)nc(NCCCN2CCN(C)CC2)n1 [S16N13 D9] | 5.7%
61 | CCCCCCCCCCCCNc1nc(NCCCN(C)C)nc(SCCCCCCCC)n1 [S8N12 D6] | 78.3%
62 | CCCCCCCCCCCCCCSc1nc(NCCN2CCN(C)CC2)nc(N(CCCCCCCCCCCC)CCCCCCCCCCCC)n1 [S14^2N12 D5] | 0.0%
63 | CCCCCCCCSc1nc(NCCN2CCOCC2)nc(SCCCCCCC)n1 [S7S8 D2] | 0.0%
64 | CCCCCCCCCCCCCCSc1nc(NCCN2CCCC2)nc(SCCCCCC)n1 [S6S14 D3] | 9.2%
65 | CCCCCCCCNc1nc(NCCN2CCCCC2)nc(SCCCCCCC)n1 [S7N8 D4] | 15.5%
66 | CCCCCCCCCCCCN(CCCCCCCCCCCC)c1nc(NCCN(C)C)nc(SCCCCCCCCCCC)n1 [S11^2N12 D1] | 0.0%
67 | CCCCCCCSc1nc(NCCN2CCCC2)nc(SCCCCCCC)n1 [S7S7 D3] | 9.2%
68 | CCCCCCCCCCCNc1nc(NCC2CCN(C)CC2)nc(SCCCCCCCCCCC)n1 [S11N11 D10] | 5.6%
69 | CCCCCCCCCCCCCCCSc1nc(NCCCCCC)nc(NCCN2CCCCC2)n1 [S15N6 D4] | 21.6%
70 | CCCCCCCCCCCCCCCCNc1nc(NCCN2CCOCC2)nc(SCCCCCC)n1 [S6N16 D2] | 1.4%
71 | CCCCCCCCCCCNc1nc(NCCCN2CCOCC2)nc(SCCCCCC)n1 [S6N11 D8] | 1.5%
72 | CCCCCCCCCCCCCCCCCCNc1nc(NCCN2CCOCC2)nc(SCCCCCCCC)n1 [S8N18 D2] | 2.6%
73 | CCCCCCCCCCCCCCCCCCSc1nc(NCCCCCCC)nc(NCCN(CC)CC)n1 [S18N7 D7] | 4.5%
